Laboratory results published in patent US12065445B2, “CDK2 inhibitors and methods of using the same” (Cedilla Therapeutics, Inc., priority 2021, dated 2024).

Test system: Kuramochi cells
Test: BrdU Cell Proliferation Assay
Format: cell-based
Details: read-out: BrdU - KURAMOCHI.1: IC50
Protocol: A BrdU assay was used as a measure of proliferation based on the DNA replication process of proliferating cells. BrdU, a pyrimidine analog, is added to the cell culture and incorporated into the DNA of proliferating cells. The presence of the BrdU analog was then measured through a colorimetric ELISA. After fixation and permeabilization of cells, peroxidase-conjugated antibody recognizing BrdU is added and allowed to incubate, followed by thorough washing to remove unbound antibody. In order to quantify the amount of bound antibody, peroxidase substrate is added and produces a color that can be measured at 450 nm.
On day −1, Kuramochi cells (Sekisui XenoTech JCRB0098) were seeded at 2,000 cells/well in columns 2-12 of a 96 well plate (Corning, CLS3596) in 150 μL media and allowed to adhere overnight at 37 degree with 5% CO2.
On day 0, the source plate was prepared by adding 10 mM compounds and performing 3-fold serial dilutions for a 10-point dose response of each compound. Using a multichannel pipette, 2 μL of the contents of the source plate were stamped into an intermediate plate with 500 μL of RPMI 1640 Media, GlutaMAX Supplement (Life Technologies, 61870127) in each well of a Nunc 96 DeepWell™ plate, non-treated 96 DeepWell plate, 2 mL/well, sterile, natural, 60/cs (Sigma Z717274) and mixed thoroughly. 50 μL from each well of this intermediate plate were added to 4 wells of a 96-well plate with previously seeded Kuramochi cells.
On day 4, the plates were developed using the BrdU ELISA Cell Proliferation Assay according to manufacturer's instructions (Roche, 11647229001). Briefly, BrdU was diluted 1:100 in Gibco®, OptiMEM® and 20 μL/well was added, shaken for 10 minutes at 350 rpm, and then returned to the incubator for 1 hour. Following incubation, the medium was discarded, and the cells were fixed by adding 200 μL of Fix/Denature solution. The anti-BrdU peroxidase antibody was diluted 1:1000 in OptiMEM, added at 100 μL/well, and incubated while shaking (350 rpm) for one hour. Three washes with PBS were performed to remove any unbound antibody, followed by the addition of 100 μL of substrate solution to each well. 25 μL/well of 1M sulfuric acid solution was then added to halt the reaction, and plates were read out using an Envision spectrophotometer (Perkin Elmer) set to read 450 nm absorbance. Background absorbance values from empty wells were subtracted from all samples and then normalized to DMSO treated wells.

Row | Compound | IC50
1 | CNC(=O)[C@@H](NC(=O)[C@@H]1CN(C(=O)c2cnn(Cc3ccccc3)c2)CC12CN(C(=O)[C@H]1CC1(C)C)C2)[C@@H](C)O [I-88A, (S)-6-(1-benzyl-1H-pyrazole-4-carbonyl)-2-((S)-2,2-dimethylcyclopropane-1-carbonyl)-N-((2S,3R)-3-hydroxy-1-(methylamino)-1-oxobutan-2-yl)-2,6-diazaspiro[3.4]octane-8-carboxamide] | > 10 µM
2 | C[C@H](NC(=O)[C@H]1CN(C(=O)c2cnn(Cc3ccccc3)c2)CC12CN(C(=O)[C@H]1CC1(C)C)C2)c1cccc(F)c1 [I-127B] | > 10 µM
3 | CNC(=O)[C@@H](NC(=O)[C@@H]1CN(C(=O)c2cnc(COC)s2)CC12CN(C(=O)[C@H]1CC1(C)C)C2)[C@@H](C)OCC1CCCCC1 [I-145A] | 0.5 to 5 µM
4 | CC1(C)C[C@@H]1C(=O)N1CC2(CN(C(=O)c3cnn(Cc4ccccc4)c3)C[C@@H]2C(=O)NCCOCc2ccccc2)C1 [I-96B] | > 10 µM
5 | CNC(=O)[C@@H](NC(=O)[C@@H]1CN(C(=O)c2cnn(Cc3ccccc3)c2)CC12CN(C(=O)[C@H]1CC1(C)C)C2)[C@@H](C)OCC1CCOCC1 [I-119A] | > 10 µM
6 | CNC(=O)[C@@H](NC(=O)[C@@H]1CN(C(=O)c2cnn(Cc3ccc(F)cc3)c2)CC12CN(C(=O)[C@H]1CC1(C)C)C2)[C@@H](C)OCC1CCC(F)(F)CC1 [I-170] | 0.5 to 5 µM
7 | CC1(C)C[C@@H]1C(=O)N1CC2(CN(C(=O)c3cnn(Cc4ccccc4)c3)C[C@H]2C(=O)N2CCC(OCc3ccccc3)CC2)C1 [I-214] | > 10 µM
8 | CNC(=O)[C@@H](NC(=O)[C@@H]1CN(C(=O)c2cnn(Cc3ccccc3)c2)CC12CN(C(=O)C(C)(C)C#N)C2)[C@@H](C)OCc1ccccc1 [I-76A] | > 10 µM
9 | CNC(=O)[C@@H](NC(=O)[C@H]1CN(C(=O)c2cnn(Cc3ccccc3)c2)CC12CN(C(=O)C1(C3CC3)CC1)C2)[C@@H](C)OCc1ccccc1 [I-114B] | > 10 µM
10 | C[C@H](NC(=O)[C@@H]1CN(C(=O)c2cnn(Cc3ccccc3)c2)CC12CN(C(=O)[C@H]1CC1(C)C)C2)c1cccc(F)c1 [I-127A] | > 10 µM
11 | CNC(=O)[C@@H](NC(=O)[C@@H]1CN(C(=O)c2cnn(CC3CCN(C(C)=O)CC3)c2)CC12CN(C(=O)[C@H]1CC1(C)C)C2)[C@@H](C)OCc1ccccc1 [I-17A] | > 10 µM
12 | CNC(=O)[C@@H](NC(=O)[C@@H]1CN(C(=O)c2scnc2C2CC2)CC12CN(C(=O)[C@H]1CC1(C)C)C2)[C@@H](C)OCC1CCCCC1 [I-185A] | > 10 µM
13 | CC1(C)C[C@@H]1C(=O)N1CC2(CN(C(=O)c3cnn(Cc4ccccc4)c3)C[C@H]2C(=O)N2CC[C@H](OCC3CCCCC3)C2)C1 [I-256] | 5 to 10 µM
14 | CNC(=O)[C@@H](NC(=O)[C@@H]1CN(C(=O)c2cccnc2)CC12CN(C(=O)[C@H]1CC1(C)C)C2)[C@@H](C)OCc1ccccc1 [I-42A] | > 10 µM
15 | CNC(=O)[C@@H](NC(=O)[C@H]1CN(C(=O)c2cnn(CC(F)(F)F)c2)CC12CN(C(=O)CC1CC1)C2)[C@@H](C)OCc1ccccc1 [I-43B] | > 10 µM
16 | CC1(C)C[C@@H]1C(=O)N1CC2(CN(C(=O)c3cnn(Cc4ccccc4)c3)C[C@H]2C(=O)N2CCO[C@H](Cc3ccccc3)C2)C1 [I-255] | > 10 µM
17 | C[C@@H](OCC1CCC(F)(F)CC1)[C@H](NC(=O)[C@@H]1CN(C(=O)c2cnn(Cc3ccc(F)cc3)c2)CC12CN(C(=O)C1(C(F)(F)F)CC1)C2)C(=O)N1CCC(F)(F)CC1 [I-190A] | ≤ 0.5 µM
18 | CNC(=O)[C@@H](NC(=O)[C@H]1CN(C(=O)c2sc(Cl)nc2C)CC12CN(C(=O)[C@H]1CC1(C)C)C2)[C@@H](C)OCC1CCCCC1 [I-208B] | > 10 µM
19 | CC1(C)C[C@@H]1C(=O)N1CC2(CN(C(=O)c3cnn(Cc4ccccc4)c3)C[C@@H]2C(=O)N[C@H]2C[C@@H]2c2cccc(Cl)c2)C1 [I-140B] | > 10 µM
20 | C[C@@H](OCC1CCCCC1)[C@H](NC(=O)[C@@H]1CN(C(=O)c2ccn[nH]2)CC12CN(C(=O)[C@H]1CC1(C)C)C2)C(=O)N1CCCCC1 [I-216] | > 10 µM

Row | Compound | IC50
21 | CNC(=O)[C@@H](NC(=O)[C@@H]1CN(C(=O)c2cnn(Cc3ccccc3)c2)CC12CN(C(=O)CC1(CO)CC1)C2)[C@@H](C)OCc1ccccc1 [I-92A] | > 10 µM
22 | CNC(=O)[C@@H](NC(=O)[C@@H]1CN(C(=O)c2cncs2)CC12CN(C(=O)C(C)(C)C)C2)[C@@H](C)OCC1CCCCC1 [I-186A] | 0.5 to 5 µM
23 | COc1cccc(CNC(=O)[C@@H]2CN(C(=O)c3cnn(Cc4ccccc4)c3)CC23CN(C(=O)[C@H]2CC2(C)C)C3)n1 [I-126A] | > 10 µM
24 | CNC(=O)[C@@H](NC(=O)[C@H]1CN(C(=O)c2cnn(Cc3ccccc3)c2)CC12CN(C(=O)[C@H]1CC1(C)C)C2)[C@@H](C)OCC1CCC1 [I-144B] | > 10 µM
25 | C[C@@H](OCc1ccccc1)[C@H](NC(=O)C1CN(C(=O)c2cnn(Cc3ccccc3)c2)CC12CN(C(=O)[C@H]1CC1(C)C)C2)C(=O)O (stereo partly drawn) [I-9, (2S,3R)-2-(6-(1-benzyl-1H-pyrazole-4-carbonyl)-2-((S)-2,2-dimethylcyclopropanecarbonyl)-2,6-diazaspiro[3.4]octane-8-carboxamido)-3-(benzyloxy)butanoic acid] | > 10 µM
26 | CNC(=O)[C@@H](NC(=O)[C@H]1CN(S(=O)(=O)c2cnn(Cc3ccccc3)c2)CC12CN(C(=O)[C@H]1CC1(C)C)C2)[C@@H](C)OCc1ccccc1 [I-79B] | > 10 µM
27 | CNC(=O)[C@@H](NC(=O)[C@H]1CN(C(=O)c2cnn(Cc3ccccc3)c2)CC12CN(C(=O)C1(CC3CC3)CC1)C2)[C@@H](C)OCc1ccccc1 [I-116B] | > 10 µM
28 | CNC(=O)[C@@H](NC(=O)[C@H]1CN(C(=O)c2n[nH]c3ccccc23)CC12CN(C(=O)[C@H]1CC1(C)C)C2)[C@@H](C)OCc1ccccc1 [I-112B] | > 10 µM
29 | CNC(=O)[C@@H](NC(=O)[C@@H]1CN(C(=O)c2cncs2)CC12CN(C(=O)[C@H]1CC1(C)C)C2)[C@@H](C)OCc1ccccc1 [I-24A, (S)—N-((2S,3R)-3-(benzyloxy)-1-(methylamino)-1-oxobutan-2-yl)-2-((S)-2,2-dimethylcyclopropane-1-carbonyl)-6-(thiazole-5-carbonyl)-2,6-diazaspiro[3.4]octane-8-carboxamide] | > 10 µM
30 | CNC(=O)[C@@H](NC(=O)[C@@H]1CN(C(=O)c2ccccn2)CC12CN(C(=O)[C@H]1CC1(C)C)C2)[C@@H](C)OCc1ccccc1 [I-45A] | > 10 µM
31 | CNC(=O)[C@@H](NC(=O)[C@@H]1CN(C(=O)c2cnn(Cc3ccccc3)c2)CC12CN(C(=O)CC1(COC)CC1)C2)[C@@H](C)OCc1ccccc1 [I-82A] | > 10 µM
32 | CNC(=O)[C@@H](NC(=O)[C@H]1CN(C(=O)c2cnn(Cc3ccccc3)c2)CC12CN(C(=O)C1(CCF)CC1)C2)[C@@H](C)OCc1ccccc1 [I-117B] | > 10 µM
33 | C[C@@H](OCc1ccccc1)[C@H](NC(=O)C1CN(C(=O)c2cnn(Cc3ccccc3)c2)CC12CN(C(=O)[C@H]1CC1(C)C)C2)C(=O)N1CCNCC1 (stereo partly drawn) [I-32] | > 10 µM
34 | CNC(=O)[C@H](COCc1ccccc1)NC(=O)[C@@H]1CN(C(=O)c2cnn(Cc3ccccc3)c2)CC12CN(C(=O)C1(C(F)(F)F)CC1)C2 [I-113A, (S)-6-(1-benzyl-1H-pyrazole-4-carbonyl)-N—((S)-3-(benzyloxy)-1-(methylamino)-1-oxopropan-2-yl)-2-(1-(trifluoromethyl)cyclopropane-1-carbonyl)-2,6-diazaspiro[3.4]octane-8-carboxamide] | > 10 µM
35 | CC1(C)C[C@@H]1C(=O)N1CC2(CN(C(=O)c3cnn(Cc4ccccc4)c3)CC2C(=O)Nc2ncc(-c3ccccc3)o2)C1 (stereo partly drawn) [I-93] | > 10 µM
36 | CNC(=O)[C@@H](NC(=O)[C@@H]1CN(C(=O)c2cnn(Cc3ccccc3)c2)CC12CN(C(=O)[C@H]1CC1(C)C)C2)C(C)(C)SCc1ccccc1 [I-171A, (S)-6-(1-benzyl-1H-pyrazole-4-carbonyl)-N—((R)-3-(benzylthio)-3-methyl-1-(methylamino)-1-oxobutan-2-yl)-2-((S)-2,2-dimethylcyclopropane-1-carbonyl)-2,6-diazaspiro[3.4]octane-8-carboxamide] | > 10 µM
37 | CNC(=O)[C@@H](NC(=O)[C@@H]1CN(C(=O)c2cn[nH]c2)CC12CN(C(=O)[C@H]1CC1(C)C)C2)[C@@H](C)OCC1CCCCC1 [I-66A, (S)—N-((2S,3R)-3-(cyclohexylmethoxy)-1-(methylamino)-1-oxobutan-2-yl)-2-((S)-2,2-dimethylcyclopropane-1-carbonyl)-6-(1H-pyrazole-4-carbonyl)-2,6-diazaspiro[3.4]octane-8-carboxamide] | > 10 µM
38 | C[C@@H]1C[C@H](C)CN(C(=O)[C@@H](NC(=O)C2CN(C(=O)c3cnn(Cc4ccccc4)c3)CC23CN(C(=O)[C@H]2CC2(C)C)C3)[C@@H](C)OCc2ccccc2)C1 (stereo partly drawn) [I-22] | 0.5 to 5 µM
39 | Cc1noc([C@H](C)NC(=O)[C@H]2CN(C(=O)c3cnn(Cc4ccccc4)c3)CC23CN(C(=O)[C@H]2CC2(C)C)C3)n1 [I-158B] | > 10 µM
